A short description of this data set: Solubility test in water. The class given is physicochemical. As to conditions: water at pH 4. Here is the method: A saponification of A4 in aqueous conditions was conducted.

This note sets out measurements from patent US20230416243A1, “Process for Preparing Heterocyclic Methanone Compounds and AZA-Bicyclo Intermediates Thereof” (ACTINOGEN MEDICAL LIMITED, priority 2020, published 2023).

Take `O=C(O)c1csc(-c2cn[nH]c2)c1` [Compound A5]: the Solubility in water result is listed as “soluble”.
